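Dose response: 5 concentrations. Exposure: 48 h. Format: 96-well plates. Endpoint: linear interpolation; highest concentration if not reached. TGI is the concentration that stops growth completely.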
Columns and labels:
Assay in all cases: inhibition of tumour cell growth, NCI panel, 48 h
SNB-19 CNS = tested on: SNB-19 CNS
NCI-H522 lung = tested on: NCI-H522 lung
IGROV1 ovarian = tested on: IGROV1 ovarian
M14 melanoma = tested on: M14 melanoma
UACC-62 melanoma = tested on: UACC-62 melanoma
SF-539 CNS = tested on: SF-539 CNS
RXF-631 renal = tested on: RXF-631 renal
NCI-H23 lung = tested on: NCI-H23 lung
SR leukemia = tested on: SR leukemia
UACC-257 melanoma = tested on: UACC-257 melanoma
HCT-116 colon = tested on: HCT-116 colon
786-0 renal = tested on: 786-0 renal
SN12C renal = tested on: SN12C renal
SW-620 colon = tested on: SW-620 colon
RPMI-8226 leukemia = tested on: RPMI-8226 leukemia
KM20L2 colon = tested on: KM20L2 colon
A549 NSCLC = tested on: A549 NSCLC
HCT-15 colon = tested on: HCT-15 colon
OVCAR-8 ovarian = tested on: OVCAR-8 ovarian
OVCAR-5 ovarian = tested on: OVCAR-5 ovarian
KM12 colon = tested on: KM12 colon
MALME-3M melanoma = tested on: MALME-3M melanoma
HOP-18 NSCLC = tested on: HOP-18 NSCLC
HOP-62 NSCLC = tested on: HOP-62 NSCLC
HT29 colon = tested on: HT29 colon
XF 498 CNS = tested on: XF 498 CNS
MOLT-4 leukemia = tested on: MOLT-4 leukemia
SK-OV-3 ovarian = tested on: SK-OV-3 ovarian
SF-268 CNS = tested on: SF-268 CNS
HOP-92 NSCLC = tested on: HOP-92 NSCLC
UO-31 renal = tested on: UO-31 renal
NCI-H460 lung = tested on: NCI-H460 lung
OVCAR-4 ovarian = tested on: OVCAR-4 ovarian
DMS 273 small cell lung = tested on: DMS 273 small cell lung
RXF 393 renal = tested on: RXF 393 renal
TK-10 renal = tested on: TK-10 renal
SK-MEL-2 melanoma = tested on: SK-MEL-2 melanoma
M19-MEL melanoma = tested on: M19-MEL melanoma
OVCAR-3 ovarian = tested on: OVCAR-3 ovarian
LXFL 529 NSCLC = tested on: LXFL 529 NSCLC
DMS 114 small cell lung = tested on: DMS 114 small cell lung
LOX IMVI melanoma = tested on: LOX IMVI melanoma
SNB-75 CNS = tested on: SNB-75 CNS
K-562 leukemia = tested on: K-562 leukemia
CAKI-1 renal = tested on: CAKI-1 renal
A498 renal = tested on: A498 renal
HL-60(TB) leukemia = tested on: HL-60(TB) leukemia
EKVX NSCLC = tested on: EKVX NSCLC
COLO 205 colon = tested on: COLO 205 colon
SF-295 CNS = tested on: SF-295 CNS
NCI-H226 lung = tested on: NCI-H226 lung
U251 CNS = tested on: U251 CNS
SK-MEL-5 melanoma = tested on: SK-MEL-5 melanoma
DLD-1 colon = tested on: DLD-1 colon
CCRF-CEM leukemia = tested on: CCRF-CEM leukemia
ACHN renal = tested on: ACHN renal
SNB-78 CNS = tested on: SNB-78 CNS
SK-MEL-28 melanoma = tested on: SK-MEL-28 melanoma
HCC-2998 colon = tested on: HCC-2998 colon

Measured: TGI

O=C1C(c2ccccc2)=C(c2ccccc2)C(c2ccc(-c3ccc(C4=C(c5ccccc5)C(=O)C(c5ccccc5)=C4c4ccccc4)cc3)cc2)=C1c1ccccc1
not listed: ACHN renal | SNB-78 CNS | SK-MEL-28 melanoma | HCC-2998 colon
> 100 µM: all other assays above

Cc1ccc(NC(=O)CC/C(CC(=O)C(C)(C)C)=N/Nc2nnc(C)n2N)cc1C
not listed: OVCAR-4 ovarian | DLD-1 colon
> 100 µM: all other assays above
